Where two headings read alike, the source gives them in different places.
Legend:
Colletotrichum coccodes = experiment: in vitro-Test with fungal microorganisms, Method B (tables J1-J11); format: cell-based; conditions: Colletotrichum coccodes, read-out: Efficacy %
How it was run: (§1)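 Efficacy, relative to untreated control (0% = growth as in control, 100% = no growth), from photometric growth measurement at 600 nm after 3 to 7 days at 20° C., 85% relative humidity. Compound applied in methanol+emulsifier, solvent evaporated, then spore/mycelium-amended liquid medium added.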

Cordana musae [1] = experiment: in vitro-Test with fungal microorganisms, Method A (tables E1-E8); format: cell-based; conditions: Neocordana musae, read-out: Efficacy %
How it was run: (§2)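 Compound was dried into wells and overlaid with liquid potato dextrose medium containing spores or mycelium of the fungus. Plates were held at 20° C and 85% RH, and growth was read as extinction at 620 nm after 3–5 days. Efficacy is relative to the untreated control (0% = control growth, 100% = no growth).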

Cordana musae [2] = experiment: in vitro-Test with fungal microorganisms, Method B (tables E9-E16); format: cell-based; conditions: Neocordana musae, single active, read-out: Efficacy
How it was run: as §1

Alternaria alternate = experiment: in vitro-Test with fungal microorganisms, Method A (tables A1-A12); format: cell-based, Alternaria alternata; conditions: Alternaria, applied alone, read-out: Efficacy %
How it was run: as §2

Alternaria alternata = experiment: in vitro-Test with fungal microorganisms, Method B (tables A13-A22); format: cell-based; conditions: Alternaria alternata, read-out: Efficacy
How it was run: as §1

[3] = test system: Ustilago segetum var. avenae; experiment: in vitro-Test with fungal microorganisms, Method B (tables I6-I11); format: cell-based; conditions: read-out: Efficacy %
How it was run: as §1

Fusarium culmorum [4] = experiment: in vitro-Test with fungal microorganisms, Method B (tables G5-G15); format: cell-based; conditions: Fusarium culmorum, read-out: Efficacy
How it was run: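 Steps: solvent evaporation leaves the compound coating the wells; fungus-inoculated liquid growth medium goes on top; absorbance at 600 nm is measured; incubation runs 3 to 7 days at 20° C. with 85% relative humidity. Inhibition is then read photometrically and expressed as efficacy against untreated control.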

Botrytis cinerea [5] = experiment: in vitro-Test with fungal microorganisms, Method A (tables B1-B14); format: cell-based; conditions: Botrytis cinerea
How it was run: as §2

[6] = test system: Colletotrichum lindemuthianum; experiment: in vitro-Test with fungal microorganisms, Method A (tables D1-D8); format: cell-based; conditions: Colletotrichum lindemuthianum, read-out: Efficacy %
How it was run: as §2

Parastagonospora nodorum [7] = experiment: in vitro-Test with fungal microorganisms, Method A (tables H1-H4); format: cell-based
Description: Example: In Vitro-Test with Fungal Microorganisms
Wells of 96-well microtiter plates are filled with 10 μl of a preparation of test compound or compound combination in methanol+emulsifier alkylaryl-polyglycol-ether. Thereafter, the solvent is evaporated in a hood. At the next step, 100 μl of liquid potato dextrose medium is given into each well, that has been amended with an appropriate concentration of spores or mycelium suspension of the test fungus.
With the aid of a photometer, the extinction in all wells is measured at the wavelength of 620 nm.
The microtiter plates are incubated at 20° C. and 85% relative humidity. The inhibition of growth is determined again photometrically 3-5 days after the application. Efficacy is calculated in relation to the untreated control, 0% efficacy means fungal growth as high as in untreated control while 100% efficacy means no fungal growth is measured.
The data in tables A1 to A12, B1 to B14, C1 to C10, D1 to D8, E1 to E8, F1 to F11, G1 to G4, H1 to H4 and I1 to I5 were collected according to Method A. The data in tables A13 to A22, B15 to B18, C11 to C20, E9 to E16, F12 to F15, G5 to G15, H5 to H8, I6 to I11 and J1 to J11 were collected according to Method B.

Cercospora beticola [8] = experiment: in vitro-Test with fungal microorganisms, Method A (tables C1-C10); format: cell-based
How it was run: as §2

Botrytis cinerea [9] = experiment: in vitro-Test with fungal microorganisms, Method B (tables B15-B18); format: cell-based; conditions: Botrytis cinerea, read-out: Efficacy %
How it was run: as §1

Diaporthe citri [10] = experiment: in vitro-Test with fungal microorganisms, Method A (tables F1-F11); format: cell-based
How it was run: as §2

Diaporthe citri [11] = experiment: in vitro-Test with fungal microorganisms, Method B (tables F12-F15); format: cell-based
How it was run: as §1

Parastagonospora nodorum [12] = experiment: in vitro-Test with fungal microorganisms, Method B (tables H5-H8); format: cell-based; conditions: Parastagonospora nodorum, read-out: Efficacy
How it was run: as §1

Fusarium culmorum [13] = experiment: in vitro-Test with fungal microorganisms, Method A (tables G1-G4); format: cell-based; conditions: alone
How it was run: as §2

Cercospora beticola [14] = experiment: in vitro-Test with fungal microorganisms, Method B (tables C11-C20); format: cell-based; conditions: Cercospora beticola, single compound, read-out: Efficacy %
How it was run: as §1

[15] = Diaporthe citri, applied alone, read-out: Efficacy
[16] = Diaporthe citri, single active, read-out: Efficacy

Cc1cc(C)nc(Nc2ccccc2)n1 [(7.005) pyrimethanil, pyrimethanil]
inhibition of growth at 0.8 ppm (Colletotrichum coccodes; single active compound at 0.8 ppm): 25%
inhibition of growth at 4 ppm (Cordana musae [1]; mixing partner alone): 24%
inhibition of growth at 20 ppm (Cordana musae [1]; mixing partner alone): 4%
inhibition of growth at 4 ppm (Cordana musae [1]; single substance): 0%
inhibition of growth at 20 ppm (Cordana musae [1]; single substance): 24%
inhibition of growth at 0.8 ppm (Cordana musae [2]; 0.8 ppm): 40%
inhibition of growth at 4 ppm (Alternaria alternate; 4 ppm): 93%
inhibition of growth at 20 ppm (Alternaria alternate; 20 ppm): 82%
inhibition of growth at 0.8 ppm (Alternaria alternata): 96%
inhibition of growth at 0.8 ppm (Alternaria alternata; single compound): 96%
inhibition of growth at 20 ppm (Alternaria alternata; single compound, 20 ppm): 100%
inhibition of growth at 0.8 ppm ([3]; 0.8 ppm): 18%
inhibition of growth at 4 ppm ([3]; 4 ppm): 42%
inhibition of growth at 20 ppm ([3]; 20 ppm): 49%
inhibition of growth at 0.8 ppm (Fusarium culmorum [4]; alone): 5%
inhibition of growth at 0.8 ppm (Fusarium culmorum [4]; single active compound): 8%
inhibition of growth at 4 ppm (Fusarium culmorum [4]; single active compound, 4 ppm): 16%
inhibition of growth at 20 ppm (Fusarium culmorum [4]; single active compound, 20 ppm): 24%
inhibition of growth at 4 ppm (Botrytis cinerea [5]; read-out: Efficacy): 100%
inhibition of growth at 20 ppm (Botrytis cinerea [5]; read-out: Efficacy): 100%
inhibition of growth at 0.8 ppm (Botrytis cinerea [5]; alone, 0.8 ppm, read-out: Efficacy %): 100%
inhibition of growth at 4 ppm (Botrytis cinerea [5]; alone, read-out: Efficacy %): 100%
inhibition of growth at 20 ppm (Botrytis cinerea [5]; alone, read-out: Efficacy %): 100%
inhibition of growth at 0.8 ppm ([6]; single active at 0.8 ppm): 1%
inhibition of growth at 4 ppm ([6]; single active at 4.0 ppm): 0%
inhibition of growth at 20 ppm ([6]; single active at 20.0 ppm): 16%
Efficacy (Parastagonospora nodorum [7]; 0.8 ppm): 100%
Efficacy (Parastagonospora nodorum [7]; 20.0 ppm): 100%
Efficacy % (Cercospora beticola [8]; 20.0 ppm): 100%
inhibition of growth at 0.8 ppm (Cercospora beticola [8]; Cercospora beticola, 0.8 ppm alone, read-out: Efficacy %): 10%
inhibition of growth at 0.8 ppm (Cercospora beticola [8]; Cercospora beticola, 0.8 ppm, read-out: Efficacy %): 20%
inhibition of growth at 4 ppm (Cercospora beticola [8]; Cercospora beticola, 4.0 ppm alone, read-out: Efficacy %): 98%
inhibition of growth at 4 ppm (Cercospora beticola [8]; Cercospora beticola, 4.0 ppm, read-out: Efficacy %): 100%
inhibition of growth at 0.8 ppm (Botrytis cinerea [9]; 0.8 ppm alone): 89%
inhibition of growth at 4 ppm (Botrytis cinerea [9]; 4 ppm alone): 95%
inhibition of growth at 4 ppm (Diaporthe citri [10]; [15]): 97%
inhibition of growth at 20 ppm (Diaporthe citri [10]; [15]): 100%
inhibition of growth at 0.8 ppm (Diaporthe citri [10]; Diaporthe citri, single active, 0.8 ppm, read-out: Efficacy): 0%
inhibition of growth at 4 ppm (Diaporthe citri [10]; [16]): 97%
inhibition of growth at 20 ppm (Diaporthe citri [10]; [16]): 100%

Fc1ccc(Oc2ccnc3cc(Cl)cc(Cl)c23)cc1 [(13.005) quinoxyfen, quinoxyfen]
inhibition of growth at 0.08 ppm (Colletotrichum coccodes; 0.08 ppm): 0%
inhibition of growth at 0.4 ppm (Colletotrichum coccodes; 0.4 ppm): 0%
inhibition of growth at 2 ppm (Colletotrichum coccodes; 2 ppm): 48%
inhibition of growth at 0.08 ppm (Colletotrichum coccodes; single active compound at 0.08 ppm): 0%
inhibition of growth at 0.4 ppm (Colletotrichum coccodes; single active compound at 0.4 ppm): 0%
inhibition of growth at 2 ppm (Colletotrichum coccodes; single active compound at 2 ppm): 18%
inhibition of growth at 10 ppm (Colletotrichum coccodes; single active compound at 10 ppm): 28%
Efficacy (Diaporthe citri [11]; Table F13, 0.08 ppm alone): 0%
Efficacy (Diaporthe citri [11]; Table F13, 2 ppm alone): 24%
Efficacy (Diaporthe citri [11]; Table F15, 0.4 ppm alone): 0%
Efficacy (Diaporthe citri [11]; Table F15, 2 ppm alone): 13%
Efficacy (Diaporthe citri [11]; Table F15, 10 ppm alone): 76%
inhibition of growth at 0.4 ppm (Cordana musae [1]; mixing partner alone): 0%
inhibition of growth at 2 ppm (Cordana musae [1]; mixing partner alone): 0%
inhibition of growth at 10 ppm (Cordana musae [1]; mixing partner alone): 0%
inhibition of growth at 0.08 ppm (Cordana musae [1]; single substance, 0.08 ppm): 0%
inhibition of growth at 0.4 ppm (Cordana musae [1]; single substance): 0%
inhibition of growth at 2 ppm (Cordana musae [1]; single substance): 0%
inhibition of growth at 10 ppm (Cordana musae [1]; single substance): 34%
inhibition of growth at 0.08 ppm (Parastagonospora nodorum [12]; 0.08 ppm): 5%
inhibition of growth at 0.4 ppm (Parastagonospora nodorum [12]; 0.4 ppm): 4%
inhibition of growth at 2 ppm (Parastagonospora nodorum [12]; 2 ppm): 1%
inhibition of growth at 10 ppm (Parastagonospora nodorum [12]; 10 ppm): 33%
inhibition of growth at 0.08 ppm (Cordana musae [2]; 0.08 ppm): 0%
inhibition of growth at 0.4 ppm (Cordana musae [2]; 0.4 ppm): 0%
inhibition of growth at 10 ppm (Cordana musae [2]; 10 ppm): 2%
inhibition of growth at 10 ppm (Alternaria alternata; single compound, 10 ppm): 30%
inhibition of growth at 0.08 ppm ([3]; 0.08 ppm): 0%
inhibition of growth at 2 ppm ([3]; 2 ppm): 0%
inhibition of growth at 10 ppm ([3]; 10 ppm): 9%
inhibition of growth at 0.08 ppm (Fusarium culmorum [4]; single active compound, 0.08 ppm): 0%
inhibition of growth at 0.4 ppm (Fusarium culmorum [4]; single active compound, 0.4 ppm): 2%
inhibition of growth at 10 ppm (Fusarium culmorum [4]; single active compound, 10 ppm): 8%
inhibition of growth at 0.4 ppm (Botrytis cinerea [5]; alone, 0.4 ppm, read-out: Efficacy %): 0%
inhibition of growth at 0.08 ppm ([6]; mixing partner alone, 0.08 ppm): 0%
inhibition of growth at 0.4 ppm ([6]; mixing partner alone, 0.4 ppm): 0%
inhibition of growth at 2 ppm ([6]; mixing partner alone, 2.0 ppm): 0%
inhibition of growth at 0.08 ppm ([6]; single active at 0.08 ppm): 1%
inhibition of growth at 0.4 ppm ([6]; single active at 0.4 ppm): 0%
inhibition of growth at 2 ppm ([6]; single active at 2.0 ppm): 0%
inhibition of growth at 10 ppm ([6]; single active at 10.0 ppm): 24%
Efficacy (Fusarium culmorum [13]; 10.0 ppm): 0%
inhibition of growth at 0.08 ppm (Fusarium culmorum [13]; Fusarium culmorum, 0.08 ppm, read-out: Efficacy): 0%
inhibition of growth at 10 ppm (Fusarium culmorum [13]; Fusarium culmorum, 10.0 ppm, read-out: Efficacy): 0%
inhibition of growth at 0.4 ppm (Cercospora beticola [14]; 0.4 ppm): 0%
inhibition of growth at 2 ppm (Cercospora beticola [14]; 2 ppm): 0%
inhibition of growth at 10 ppm (Cercospora beticola [14]; 10 ppm): 4%
inhibition of growth at 0.08 ppm (Cercospora beticola [8]; Cercospora beticola, 0.08 ppm alone, read-out: Efficacy %): 10%
inhibition of growth at 0.4 ppm (Cercospora beticola [8]; Cercospora beticola, 0.4 ppm alone, read-out: Efficacy %): 0%
inhibition of growth at 2 ppm (Cercospora beticola [8]; Cercospora beticola, 2.0 ppm alone, read-out: Efficacy %): 4%
inhibition of growth at 10 ppm (Cercospora beticola [8]; Cercospora beticola, 10.0 ppm alone, read-out: Efficacy %): 34%
inhibition of growth at 0.08 ppm (Botrytis cinerea [9]; 0.08 ppm alone): 0%
inhibition of growth at 0.4 ppm (Botrytis cinerea [9]; 0.4 ppm alone): 0%
inhibition of growth at 0.08 ppm (Diaporthe citri [10]; Diaporthe citri, Table F10, 0.08 ppm alone, read-out: Efficacy): 52%
inhibition of growth at 0.4 ppm (Diaporthe citri [10]; Diaporthe citri, Table F10, 0.4 ppm alone, read-out: Efficacy): 6%
inhibition of growth at 2 ppm (Diaporthe citri [10]; Diaporthe citri, Table F10, 2.0 ppm alone, read-out: Efficacy): 10%
inhibition of growth at 10 ppm (Diaporthe citri [10]; Diaporthe citri, Table F10, 10.0 ppm alone, read-out: Efficacy): 20%
inhibition of growth at 0.4 ppm (Diaporthe citri [10]; Diaporthe citri, applied alone, 0.4 ppm, read-out: Efficacy): 15%
inhibition of growth at 10 ppm (Diaporthe citri [10]; Diaporthe citri, applied alone, 10.0 ppm, read-out: Efficacy): 41%
Efficacy (Diaporthe citri [10]; applied alone, 2.0 ppm): 0%
